Source: patent US20120046314A1, “[…] USE IN TREATING OR […]” (MITOS, INC., priority 2005, published 2012)

Assays:
[1] = test system: cancer-related proteins in the cancerous tissue; test: Example 1: protein levels in cancerous tissue of patient diagnosed with cancer after Tempol; format: in vivo, human; details: 70-kilogram patient diagnosed with cancer; 1500 mg per day for 180 days
Protocol: A 70-kilogram patient diagnosed with cancer is administered a dose of 1500 mg of Tempol per day for 180 days. This may be administered in a single dose, or may be administered as a number of smaller doses over a 24-hour period: for example, three 500-mg doses at eight-hour intervals. Following treatment, the protein levels of elongation factor-1 delta, ADAM12, cathepsin B, peroxisome proliferator-activated receptor-δ, hypoxia-inducible factor alpha subunit, superoxide dismutase 2, uncoupling protein 2, and cyclooxygenase 1 in the cancerous tissue are reduced, and the levels of mitogen-activated protein kinase kinase 5, glutathione S-transferase M3, PERP, sirtuin 2, and brain protein I3 are increased.

[2] = test system: Mitogen activated protein kinase kinase 5; test: Gene expression in cardiac tissue of Tempol-fed mice (chip-based microarray); format: in vivo
Protocol: (§1) To assess the effects of Tempol on gene expression, Tempol was administered to experimental mice at a dose of 5 mg/g of food from 14 months to 31 months after birth. Mice receiving the same food without the addition of Tempol were used as a negative control. At the age of 31 months, the experimental animals were sacrificed and the hearts were surgically removed. The expression of a broad spectrum of genes in the cardiac tissue was assessed using chip-based microarray technology. Such chips are well known in the art and are widely used to assess gene expression.

Elongation factor-1-δ = test: as above; format: in vivo
Protocol: as §1

Meltrin-alpha (ADAM12) = test: as above; format: in vivo
Protocol: as §1

Cathepsin B = test: as above; format: in vivo
Protocol: as §1

[3] = test system: Peroxisome Proliferator-Activated Receptor-δ; test: as above; format: in vivo
Protocol: as §1

Brain protein I3 (BRI3) = test: Gene expression in adipose tissue of Tempol-fed mice (Affymetrix MOE430A 2.0 array); format: in vivo
Protocol: (§2) In a further gene expression study, Tempol was administered to experimental mice at a dose of 5 g/kg of diet from 12 months through 15 months. Mice receiving the same diet without the addition of Tempol were used as a negative control. At the age of 15 months, the adipose tissue of the experimental animals was obtained. The expression of a broad spectrum of genes in the adipose tissue was assessed using chip-based microarray technology. Specifically, in this case an Affymetrix MOE430A 2.0 array, containing 12,960 genes, was employed. Such chips are well known in the art and are widely used to assess gene expression.

[4] = test system: Superoxide dismutase 2 (SOD2); test: as above; format: in vivo
Protocol: as §2

[5] = test system: Hypoxia-inducible factor, alpha subunit (HIF1A); test: as above; format: in vivo
Protocol: as §2

[6] = test system: Uncoupling protein 2 (UCP2); test: as above; format: in vivo
Protocol: as §2

[7] = test system: p53-related apoptosis effector related to PMP-22 (PERP); test: as above; format: in vivo
Protocol: as §2

[8] = test system: Glutathione S-transferase M3 (GSTM3); test: as above; format: in vivo
Protocol: as §2

Sirtuin 2 (SIRT2) = test: as above; format: in vivo
Protocol: as §2

Cyclooxygenase 1 (COX-1) = test: as above; format: in vivo
Protocol: as §2

[9] = test system: cancer-related proteins in the cancerous tissue; test: Example 2: protein levels in patient with familial risk factors for cancer after Tempol; format: in vivo, human; details: 70-kilogram patient with familial risk factors, no symptoms; 1500 mg per day for 180 days
Source text: This may be administered in a single dose, or may be administered as a number of smaller doses over a 24-hour period: for example, three 500-mg doses at eight-hour intervals. Following treatment, the protein levels of elongation factor-1 delta, ADAM12, cathepsin B, peroxisome proliferator-activated receptor-δ, hypoxia-inducible factor alpha subunit, superoxide dismutase 2, uncoupling protein 2, and cyclooxygenase 1 in the cancerous tissue are reduced, and the levels of mitogen-activated protein kinase kinase 5, glutathione S-transferase M3, PERP, sirtuin 2, and brain protein I3 are increased.

[10] = 5 mg/g of food from 14 to 31 months, mouse tp51
[11] = 5 mg/g of food from 14 to 31 months, mouse tp52
[12] = 5 mg/g of food from 14 to 31 months, mouse tp53
[13] = Tempol-treated vs control mice, negative = downregulated
[14] = reduction in Tempol-treated animals
[15] = 5 g/kg of diet from 12 through 15 months
[16] = Tempol-treated vs control mice, negative = downregulated, P Value 0.004

With `CC1(C)CC(O)CC(C)(C)N1[O]` [Tempol, 4-hydroxy-2,2,6,6-tetramethylpiperidine-1-oxyl] the “levels of MAPKK5, GSTM3, PERP, sirtuin 2 and brain protein I3” value [1] was “increased”, the “protein levels of elongation factor-1 delta, ADAM12, cathepsin B, PPAR-δ, HIF alpha subunit, SOD2, UCP2 and COX-1 in the cancerous tissue” value [1] was “reduced” and the “MAPKK5 expression, TEMPOL-treated mice tp51” value [2, 10] was 41. For the same compound, the “MAPKK5 expression, TEMPOL-treated mice tp52” value [2, 11] was 84, the “MAPKK5 expression, TEMPOL-treated mice tp53” value [2, 12] was 63 and the “MAPKK5 expression Fold change” value ([2]; Tempol-treated vs control mice, upregulated) was 2.2 fold. The “Elongation factor-1-δ expression, TEMPOL-treated mice tp51” value (Elongation factor-1-δ; [10]) was 12, the “Elongation factor-1-δ expression, TEMPOL-treated mice tp52” value (Elongation factor-1-δ; [11]) was 115 and the “Elongation factor-1-δ expression, TEMPOL-treated mice tp53” value (Elongation factor-1-δ; [12]) was 185. For the same compound, the “Elongation factor-1-δ expression Fold change” value (Elongation factor-1-δ; [13]) was −5.9 fold, the “Elongation factor-1-δ expression reduced (fold)” value (Elongation factor-1-δ; [14]) was 5.9 fold and the “ADAM12 expression, TEMPOL-treated mice tp51” value (Meltrin-alpha (ADAM12); [10]) was −16. The “ADAM12 expression, TEMPOL-treated mice tp52” value (Meltrin-alpha (ADAM12); [11]) was −4, the “ADAM12 expression, TEMPOL-treated mice tp53” value (Meltrin-alpha (ADAM12); [12]) was −14 and the “ADAM12 expression Fold change” value (Meltrin-alpha (ADAM12); [13]) was −2.3 fold. For the same compound, the “ADAM12 expression reduced (fold)” value (Meltrin-alpha (ADAM12); [14]) was 2.3 fold, the “Cathepsin B expression, TEMPOL-treated mice tp51” value (Cathepsin B; [10]) was −12 and the “Cathepsin B expression, TEMPOL-treated mice tp52” value (Cathepsin B; [11]) was 6. The “Cathepsin B expression, TEMPOL-treated mice tp53” value (Cathepsin B; [12]) was 13, the “Cathepsin B expression Fold change” value (Cathepsin B; [13]) was −2.8 fold and the “Cathepsin B expression reduced (fold)” value (Cathepsin B; [14]) was 2.8 fold. For the same compound, the “PPAR-δ expression, TEMPOL-treated mice tp51” value [3, 10] was 1, the “PPAR-δ expression, TEMPOL-treated mice tp52” value [3, 11] was 19 and the “PPAR-δ expression, TEMPOL-treated mice tp53” value [3, 12] was 28. For the same compound, the “PPAR-δ expression Fold change” value [3, 13] was −2.3 fold, the “PPAR-δ expression reduced (fold)” value [3, 14] was 2.3 fold and the “BRI3 expression, Mean (Tempol-treated mice)” value (Brain protein I3 (BRI3); [15]) was 1835. For the same compound, the “BRI3 expression Fold change” value (Brain protein I3 (BRI3); Tempol-treated vs control mice, upregulated, P Value 0.003) was 1.18 fold, the “SOD2 expression, Mean (Tempol-treated mice)” value [4, 15] was 4423 and the “SOD2 expression Fold change” value [4, 16] was −1.33 fold. The “SOD2 expression reduced (fold)” value [4, 14] was 1.33 fold, the “HIF1A expression, Mean (Tempol-treated mice)” value [5, 15] was 2203 and the “HIF1A expression Fold change” value [5, 16] was −1.23 fold. For the same compound, the “HIF1 alpha expression reduced (fold)” value [5, 14] was 1.23 fold, the “UCP2 expression, Mean (Tempol-treated mice)” value [6, 15] was 2140 and the “UCP2 expression Fold change” value ([6]; Tempol-treated vs control mice, negative = downregulated, P Value 0.012) was −1.61 fold. The “UCP2 expression reduced (fold)” value [6, 14] was 1.61 fold, the “PERP expression, Mean (Tempol-treated mice)” value [7, 15] was 82 and the “PERP expression Fold change” value ([7]; Tempol-treated vs control mice, upregulated, P Value 0.049) was 1.66 fold. The “GSTM3 expression, Mean (Tempol-treated mice)” value [8, 15] was 74, the “GSTM3 expression Fold change” value ([8]; Tempol-treated vs control mice, upregulated, P Value 0.001) was 7.52 fold and the “SIRT2 expression, Mean (Tempol-treated mice)” value (Sirtuin 2 (SIRT2); [15]) was 686. The “SIRT2 expression Fold change” value (Sirtuin 2 (SIRT2); Tempol-treated vs control mice, upregulated, P Value 0.048) was 1.16 fold, the “COX-1 expression, Mean (Tempol-treated mice)” value (Cyclooxygenase 1 (COX-1); [15]) was 331 and the “COX-1 expression Fold change” value (Cyclooxygenase 1 (COX-1); Tempol-treated vs control mice, negative = downregulated, P Value 0.006) was −1.18 fold. For the same compound, the “COX-1 expression reduced (fold)” value (Cyclooxygenase 1 (COX-1); [14]) was 1.18 fold, the “levels of MAPKK5, GSTM3, PERP, sirtuin 2 and brain protein I3” value [9] was “increased” and the “protein levels of elongation factor-1 delta, ADAM12, cathepsin B, PPAR-δ, HIF alpha subunit, SOD2, UCP2 and COX-1 in the cancerous tissue” value [9] was “reduced”.
